From US20070104716A1, “Methods for controlling pathological angiogenesis by inhibition of a6b4 integrin” (SLOAN-KETTERING INSTITUTE FOR CANCER RESEARCH, priority 2003, published 2007)

Tested on: HUVECs expressing wild-type α6β4
Test: in vitro wound closure (migration) assay on laminin-5 in response to bFGF
Type: cell-based, Human
Conditions: plated on laminin-5, bFGF, wound closure at 8 hours (FIG. 4A)
Protocol: When indicated, migrating cells were treated with the NF-kB inhibitor BAY 11-7082 ([…]) or the MAPK inhibitor PD98059 (50 μM).
To examine the effect of α6β4 signaling on endothelial cell migration, parental HUVECS and their derivatives expressing either wild-type or mutant α6β4 were plated on laminin-5 at confluency and subjected to in vitro wound assay. Expression of wild-type α6β4 increased endothelial cell migration in response to bFGF.
To examine the role of ERK and NF-OB signaling in endothelial cell migration, HUVECs expressing wild-type α6β4 were subjected to in vitro wound closure assay in the presence of the MEK inhibitor PD98059 or the NF-kB inhibitor BAYI 1-072.
HUVECs were electroporated with equimolar amounts of plasmids encoding α6 and either β4 or β4-1355T (Dans et al., 2001), deprived of growth factors for 18 hours, and then panned on plates coated with the anti-β4 mAb 3E1. Bound cells were washed with PBS and recovered by trypsin-EDTA treatment. For in vitro wound assays, equal numbers of cells expressing wild-type β4 or mutant β4-1355T were plated on dishes coated with laminin-5, grown until confluent, and starved. […] Wound closure was monitored by digital photography. […] HUVECS Invasion was quantified 72 hours later by counting the average number of capillary-like structures per microcarrier bead.

SMILES: Cc1ccc(S(=O)(=O)/C=C/C#N)cc1 [BAYI 1-072]
- migration of α6β4-expressing HUVECs (wound closure) (BAY 11-7082 12.5PM): reduced the migration of α6β4-expressing HUVECs to levels similar to those displayed by control HUVECs or HUVECs expressing mutant α6β4

SMILES: COc1cccc(-c2cc(=O)c3ccccc3o2)c1N [PD98059]
- migration of α6β4-expressing HUVECs (wound closure) (PD98059 50 μM): reduced the migration of α6β4-expressing HUVECs to levels similar to those displayed by control HUVECs or HUVECs expressing mutant α6β4
